CC[C@H](C)C(=O)O[C@H]1C[C@H](O)C=C2C=C[C@H](C)[C@H](CC[C@@H](O)C[C@@H](O)CC(=O)[O-])[C@H]21.[Na+]
Details	solubility (mole fraction)
in ethanol, 278 K	0.0031
in ethanol, 283 K	0.00325
in ethanol, 288 K	0.00346
in ethanol, 293 K	0.00366
in ethanol, 298 K	0.00406
in ethanol, 303 K	0.00429
in ethanol, 318 K	0.00569
in ethanol, 323 K	0.00692
in ethanol, 328 K	0.00793
in ethanol, 333 K	0.00942
in isopropanol, 278 K	0.000605
in isopropanol, 283 K	0.000684
in isopropanol, 288 K	0.000753
in isopropanol, 293 K	0.000818
in isopropanol, 298 K	0.000903
in isopropanol, 303 K	0.00103
in isopropanol, 308 K	0.0011
in isopropanol, 318 K	0.00141
in isopropanol, 322.9 K	0.00164
in isopropanol, 327.9 K	0.0019
in methanol, 277.8 K	0.0225
in methanol, 283 K	0.0245
in methanol, 287.9 K	0.027
in methanol, 293 K	0.0301
in methanol, 297.8 K	0.0326
in methanol, 302.9 K	0.0373
in methanol, 308 K	0.0418
in methanol, 313 K	0.0492
in methanol, 318 K	0.0588
in methanol, 324 K	0.0687
in n-butanol, 278.1 K	0.00108
in n-butanol, 283 K	0.00118
in n-butanol, 288 K	0.00127
in n-butanol, 293 K	0.00144
in n-butanol, 298 K	0.00159
in n-butanol, 303 K	0.00178
in n-butanol, 308 K	0.00223
in n-butanol, 313 K	0.0029
in n-butanol, 318.2 K	0.00345
in n-butanol, 323 K	0.00408
in n-butanol, 328 K	0.00493
in n-propanol, 278 K	0.00208
in n-propanol, 283 K	0.00216
in n-propanol, 288 K	0.00219
in n-propanol, 293 K	0.00227
in n-propanol, 298 K	0.00238
in n-propanol, 308 K	0.00343
in n-propanol, 313 K	0.00449
in n-propanol, 318 K	0.0062
in n-propanol, 328 K	0.0122
in n-propanol, 333 K	0.0158
in water, 278.4 K	0.00911
in water, 283 K	0.0119
in water, 288 K	0.0162
in water, 293 K	0.0216
in water, 298 K	0.0285
in water, 303 K	0.0343
in water, 313 K	0.0477
in water, 318 K	0.0553
in water, 323 K	0.0642
in water, 328 K	0.0723
in water, 333 K	0.0841

From BigSolDB 2.1
